Laboratory results published in ChEMBL document CHEMBL1201862, “PubChem BioAssay data set” (2004).
One block for each compound: values may come before it. Calls of active or inactive are those of the source. Rule as the data show it, for most assays here: actives have a measured EC50 and inactives only a lower limit.

Columns and labels:
[1] = molecular target: T1, Calpain-2 catalytic subunit (Sus scrofa, UniProt P43367); assay: pig calpain II inhibitor potency, dose response, biochemical, fluorogenic peptide substrate (AID 1420); assay type: functional
T1 sequence (P43367 whole entry): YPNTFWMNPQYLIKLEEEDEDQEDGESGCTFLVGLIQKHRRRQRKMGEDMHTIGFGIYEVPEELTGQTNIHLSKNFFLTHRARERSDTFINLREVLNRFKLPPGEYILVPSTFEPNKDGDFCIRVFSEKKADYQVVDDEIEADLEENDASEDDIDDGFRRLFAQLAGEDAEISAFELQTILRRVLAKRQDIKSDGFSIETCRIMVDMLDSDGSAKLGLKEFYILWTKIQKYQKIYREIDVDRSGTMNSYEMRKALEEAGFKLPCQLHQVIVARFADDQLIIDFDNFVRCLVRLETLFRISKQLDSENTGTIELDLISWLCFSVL

[2] = Luminescence Cell-Based Dose Retest to Confirm Inhibitors of Cancer Stem Cells. [Related pubchem assays (depositor defined):AID2717, AID2721]; assay type: functional; conditions: Homo sapiens
[3] = molecular target: Luciferin 4-monooxygenase (Photinus pyralis, UniProt P08659); assay: firefly luciferase enzyme inhibitors, dose response, biochemical, luminescence (AID 1891)
[4] = Luminescence Cell-Based Dose Confirmation HTS to Identify Inhibitors of Platelet Dense Granule Release. [Related pubchem assays: 1663 (Primary HTS), 1678 (Summary of Project)]; assay type: functional
[5] = HEp-2 cell cytotoxicity, dose response, cytotoxicity control for RSV inhibitor project, HTS (AID 2410); assay type: functional; conditions: human respiratory syncytial virus
[6] = tested on: BJ; assay: cytotoxicity toward BJ-TERT-LT-ST fibroblasts, dose response, cell-based, RAS-independent, luminescence (AID 1935); assay type: functional; conditions: Homo sapiens;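 also: BJ fibroblasts immortalized with TERT plus LT and ST oncogenes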
[7] = tested on: BJ; assay: cytotoxicity toward BJ-TERT fibroblasts, dose response, cell-based, RAS-independent, luminescence (AID 1933); assay type: functional; conditions: Homo sapiens
[8] = tested on: BJ; assay: cells; assay type: functional, cell-based; conditions: Homo sapiens
[9] = cytotoxicity toward DRD oncogenic fibroblasts, dose response, cell-based, non-viral oncogenic, luminescence (AID 1934); assay type: functional; conditions: Homo sapiens
[10] = molecular target: T2, Polyadenylate-binding protein 1 (Homo sapiens, UniProt P11940); assay: PABP1 MLLE–PAM2 binding inhibitor potency, dose response, biochemical, fluorescence polarization, FITC-PAM2 peptide (AID 602259); assay type: functional; conditions: read-out: IC50_Mean
[11] = molecular target: T2, Polyadenylate-binding protein 1; assay: PABP1 MLLE–PAM2 interaction inhibitors, dose response, miRNA deadenylation inhibitor project, biochemical, fluorescence polarization, Cy5-PAM2 peptide, secondary (AID 602260); assay type: functional; conditions: read-out: IC50_Mean
[12] = C. albicans growth with fluconazole, confirmation, fluorescence, retest (AID 2467); assay type: functional, cell-based
[13] = NIH-3T3 fibroblast cytotoxicity, dose response, cytotoxicity control, cell-based, fluorescence, Alamar Blue, secondary assay (AID 2327); assay type: functional;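 also: NIH-3T3 mouse fibroblasts cultured with fluconazole at 8 µg/mL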
[14] = molecular target: T3, Heat shock factor protein 1 (Mus musculus, UniProt P38532); assay: HSF1 potentiators in luciferase reporter cells, confirmation, cell-based, NIH3T3, luminescence, dose retest (AID 435004); assay type: functional;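 also: stress induced by proteasome inhibitor MG132 added 30 min after compound; luciferase reporter driven by HSF1 response element in NIH3T3 cells; actives raise luminescence as potentiators of the MG132 stress response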
T3 sequence (P38532 whole entry): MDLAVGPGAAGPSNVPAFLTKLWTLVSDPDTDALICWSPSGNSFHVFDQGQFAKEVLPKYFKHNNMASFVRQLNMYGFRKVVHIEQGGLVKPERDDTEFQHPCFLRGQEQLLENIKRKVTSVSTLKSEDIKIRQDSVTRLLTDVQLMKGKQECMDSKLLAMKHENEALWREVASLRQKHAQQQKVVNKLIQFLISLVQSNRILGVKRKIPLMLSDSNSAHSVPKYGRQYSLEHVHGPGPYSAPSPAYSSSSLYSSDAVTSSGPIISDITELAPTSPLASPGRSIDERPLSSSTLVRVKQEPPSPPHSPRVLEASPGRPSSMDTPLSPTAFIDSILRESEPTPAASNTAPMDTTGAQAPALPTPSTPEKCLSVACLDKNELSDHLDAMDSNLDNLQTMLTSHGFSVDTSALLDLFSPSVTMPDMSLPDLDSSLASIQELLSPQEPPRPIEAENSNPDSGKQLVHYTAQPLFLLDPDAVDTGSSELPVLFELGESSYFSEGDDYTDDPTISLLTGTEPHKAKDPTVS
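For AC50 in this document: cells exposed to compound for roughly 70 hours or longer before luminescence read.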

Luciferin 4-monooxygenase, sequence (P08659 whole entry): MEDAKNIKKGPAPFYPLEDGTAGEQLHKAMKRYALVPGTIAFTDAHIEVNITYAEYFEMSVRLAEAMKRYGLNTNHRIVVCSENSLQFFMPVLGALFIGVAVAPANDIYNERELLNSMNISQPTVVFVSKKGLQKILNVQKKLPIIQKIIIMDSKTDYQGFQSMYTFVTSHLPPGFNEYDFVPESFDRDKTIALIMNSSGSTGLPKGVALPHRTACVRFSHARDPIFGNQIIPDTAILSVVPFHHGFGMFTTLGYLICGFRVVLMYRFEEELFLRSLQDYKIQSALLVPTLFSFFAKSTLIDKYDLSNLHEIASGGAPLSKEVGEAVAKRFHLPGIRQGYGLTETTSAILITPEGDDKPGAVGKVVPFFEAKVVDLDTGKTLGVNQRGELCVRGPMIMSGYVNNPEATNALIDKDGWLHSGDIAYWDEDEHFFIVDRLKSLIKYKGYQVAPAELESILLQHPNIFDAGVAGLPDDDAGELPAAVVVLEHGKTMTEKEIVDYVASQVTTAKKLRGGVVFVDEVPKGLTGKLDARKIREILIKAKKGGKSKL
T2 sequence (P11940 whole entry): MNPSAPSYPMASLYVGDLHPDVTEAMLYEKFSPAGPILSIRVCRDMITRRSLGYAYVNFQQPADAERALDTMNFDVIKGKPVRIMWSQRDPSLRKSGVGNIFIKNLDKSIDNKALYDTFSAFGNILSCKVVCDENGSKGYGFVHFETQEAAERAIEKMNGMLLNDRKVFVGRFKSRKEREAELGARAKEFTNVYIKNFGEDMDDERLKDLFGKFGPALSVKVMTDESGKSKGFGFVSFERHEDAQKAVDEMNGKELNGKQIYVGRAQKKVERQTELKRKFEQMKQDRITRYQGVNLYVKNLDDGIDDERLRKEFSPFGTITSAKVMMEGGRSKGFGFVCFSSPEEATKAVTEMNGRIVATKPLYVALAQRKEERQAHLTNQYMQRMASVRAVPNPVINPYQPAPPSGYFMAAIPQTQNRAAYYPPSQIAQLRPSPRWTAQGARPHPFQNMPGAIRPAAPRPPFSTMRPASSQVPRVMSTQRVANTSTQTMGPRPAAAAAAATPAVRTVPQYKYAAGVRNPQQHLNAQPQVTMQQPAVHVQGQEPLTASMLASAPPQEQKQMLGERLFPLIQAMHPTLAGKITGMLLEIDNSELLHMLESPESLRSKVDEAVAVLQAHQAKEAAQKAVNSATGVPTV

IC50 [1]: < 0.4 µM (not active)
SMILES: Nn1c(Cc2cccc3ccccc23)nnc1SCc1ccc(Cl)c(Cl)c1

SMILES: Oc1ccccc1N1CCN(c2ncnc3sc(-c4ccccc4)cc23)CC1
AC50 [2]: 3.87 µM (active) | EC50 [3]: > 112 µM (not active) | EC50 [4]: > 112 µM (not active) | CC50 [5]: 14.2 µM (active)

IC50 [1]: 34.6 µM (not active)
SMILES: Cc1cc2cc(CN=C(S)NC3CCCCC3)ccc2[nH]1

SMILES: COc1ccc(-n2c(SCC(=O)Nc3ncc(Cl)cc3Cl)nc3ccccc32)cc1
EC50 [6]: > 150 µM (inconclusive) | EC50 [7]: 27.8 µM (active) | EC50 [8]: 139 µM (active) | EC50 [9]: 137 µM (active)

IC50 [10]: > 66 µM (inactive) | IC50 [11]: > 66 µM (inactive)
SMILES: NC(=O)c1ccsc1NC(=O)CSc1nc2ccccc2c(=O)n1CCCO

IC50 [1]: > 50 µM (not active)
SMILES: Cc1ccc2cc(CCNC(=O)c3cc4ccccc4o3)c(O)nc2c1C

IC50 [1]: > 50 µM (not active)
SMILES: CCN1/C(=C\C=C2\C(=O)N(c3ccccc3)C(=S)N2C)Sc2ccccc21

SMILES: Brc1ccc(-c2nnc3sc(CN4CCN(c5ccccc5)CC4)cn23)cc1
EC50 [6]: > 150 µM (not active) | EC50 [7]: > 150 µM (not active) | EC50 [12]: 2.14 µM (active) | EC50 [8]: > 150 µM (not active) | EC50 [9]: > 150 µM (not active) | EC50 [13]: > 150 µM (inactive)

SMILES: O=C(O)C1C2C=CC(C2)C1C(=O)NCc1ccco1 (configuration not stated)
EC50 [3]: > 112 µM (not active) | EC50 [4]: > 112 µM (not active)

IC50 [1]: 10.8 µM (active)
SMILES: CC(C)Cn1c(S)nnc1-c1csc(C(C)C)c1

SMILES: O=C(NCCSc1c[nH]c2ccccc12)c1c(F)cccc1F
EC50 [3]: > 112 µM (not active) | EC50 [4]: > 112 µM (not active)

IC50 [1]: < 0.4 µM (not active)
SMILES: CSc1nc(Oc2ccccc2)c2sccc2n1

SMILES: CC(=O)c1ccc(NC(=O)c2cc[nH]n2)cc1
EC50 [3]: 31.4 µM (active) | EC50 [4]: 7.07 µM (active)

SMILES: COn1c(C)c(C(C)=O)c2c3nonc3ccc21
EC50 [3]: > 112 µM (not active) | EC50 [4]: > 112 µM (not active)

SMILES: COc1ccc(/C=C(\C#N)c2c[nH]c3ccccc23)cc1
EC50 [14]: 39.2 µM (active) | AC50 [2]: 0.203 µM (active) | EC50 [6]: 1.76 µM (inconclusive) | EC50 [7]: 0.706 µM (inconclusive) | EC50 [8]: 20 µM (inconclusive) | EC50 [9]: 0.441 µM (active)

IC50 [10]: > 66 µM (inactive) | IC50 [11]: > 66 µM (inactive)
SMILES: O=C(CSc1ccc(-c2ccncc2)nn1)c1ccccc1

SMILES: Cc1ccccc1-c1nc(CS(=O)(=O)CC(=O)N2CCc3ccccc32)c(C)o1
EC50 [3]: > 112 µM (not active) | EC50 [4]: > 112 µM (not active)

IC50 [1]: 13.4 µM (not active)
SMILES: COc1ccc(-c2cc(C(=O)N3CCCc4ccccc43)no2)cc1

IC50 [1]: 24.4 µM (not active)
SMILES: CCOc1ccc(CC(=O)OCn2nnc3ccccc3c2=O)cc1
